One test has as its target WDR5 (Homo sapiens, UniProt P61964). The test can be described thus: WDR5 HTRF binding assay. The conditions noted are these: read-out: (a) WDR5 HTRF Pep Val v.1[Inhibitor/IC50]Qualified AC50. How it is done:
The compounds were serially diluted 3-fold in DMSO to obtain a total of twelve concentrations. Then the test compounds at each concentration (90 nL of each) were transferred by Mosquito in the white Proxiplate plus 384-well microplate (Perkin Elmer). The assay mixture (typical 9 μL) containing 6 nM WDR5 and 20 nM Biotin-MLL1 WIN peptide (3762-3773) in the assay buffer (25 mM Hepes, pH7.5, 0.05% Tween 20, 2 mM DTT, 100 mM NaCl, 0.1% BSA) were added to the wells. For counter assay, a 9 μL solution of 15 nM Biotin-PEG-His peptide was added into the wells. After 20 min incubation at rt, a 3 μL detection solution containing 14 μg/ml Phycolink Streptavidin Allophycocyanin (Prozyme), 2 nM Anti-His-Eu (PerkinElmer) in assay buffer was then added. After 1 hr incubation, the plate was read in the EnVision reader (PerkinElmer) using the HTRF protocol (The protocol set-up: Lance/Delfia dual enhancer mirror, excitation at 320 UV2 (TRF), emission at APC665, 2nd emission at EuropiμM 615). HTRF signals were normalized based on the reading coming from the positive (maximum signal control) and negative controls (minimum signal control) to give percentage of activities left. The data were then fit to a dose response equation using the program Helios (Novartis) to get the IC50 values. Helios is a Novartis in-house assay data analysis software using the methods described by Normolle, D. P., Statistics in Medicine, 12:2025-2042 (1993); Formenko, I. et al., Computer Methods and programs in Biomedicine, 82, 31-37 (2006); Sebaugh, J. L., Pharmaceutical Statistics, 10:128-134 (2011); Kelly, C. et al., Biometrics, 46(4):1071-1085 (1990); and Kahm, M, et al., Journal of Statistical Software, 33(7):(2010) (grofit: Fitting Biological Growth Curves with R, pages 1-21, available at http://www.jstatsoft.org/).

Test [1] deals with wild type MLL1 four-member complex (MLL1-4C) (Homo sapiens, UniProt P61964). The test can be described thus: MLL1 LC-MS assay (SAH production). Format: biochemical. Particulars: read-out: (b) MLL LCMS Peptide Val.v.1 Qualified AC50. How it is done:
The compounds of the present disclosure were serially and separately diluted 3-fold in DMSO to obtain a total of eight or twelve concentrations. Then the test compounds at each concentration (120 nL of each) were transferred by Mosquito into white Proxiplate plus 384-well microplate (PerkinElmer). Solutions (6 μL) of 60 nM wild type MLL1 four-member complex (MLL1-4C) and 5 μM SAM in the reaction buffer (20 mM Tris-HCl, pH8.0, 0.01% Tween 20, 1 mM DTT, 10 mM MgCl2, 0.01% BSA) were added to the wells that were then incubated with the test compound for 20 min. A 6 μL solution of 20 μM of the peptide substrate H3K4me0 (histone H3[1-21]-Biotin) in the reaction buffer was added to initiate each reaction. The final components in the reaction solution include 30 nM MLL1-4C, 2.5 μM SAM, and 10 μM H3K4me0 with varying concentration of the compounds. A positive control consisted of 30 nM MLL1-4C, 2.5 μM SAM, and 10 μM substrate in the absence of the test compound, and a negative control consisted of 2.5 μM SAM, and 10 μM substrate only. Each reaction was incubated at rt for 120 min, then stopped by addition of 3 μL per of quench solution (2.5% TFA with 320 nM d4-SAH). The reaction mixture was centrifuged (Eppendorf centrifuge 5810, Rotor A-4-62) for 2 min at 2000 rmp. The SAH production from the enzymatic assays were monitored by LC-MS/MS on an API 4000 triple quadrupole mass spec with Turbolon Spray (Applied Biosystem) coupled with Prominenece UFLC (Shimazu). The level of SAH production were then normalized based on the values coming from the positive and negative controls to give percent enzyme activities. The data were then fit to a dose response equation using the program Helios (Novartis) to get the IC50 values of the test compound. Helios is a Novartis in-house assay data analysis software using the methods described by Normolle, D. P., Statistics in Medicine, 12:2025-2042 (1993); Formenko, I. et al., Computer Methods and programs in Biomedicine, 82, 31-37 (2006); Sebaugh, J. L., Pharmaceutical Statistics, 10:128-134 (2011); Kelly, C. et al., Biometrics, 46(4):1071-1085 (1990); and Kahm, M, et al., Journal of Statistical Software, 33(7):(2010) (grofit: Fitting Biological Growth Curves with R, pages 1-21, available at http://www.jstatsoft.org/).

A further test concerns MV4-11 cells. The experiment in a line: MV4-11 6-day cell growth CTG (CellTiter-Glo) assay. Format: cell-based. The conditions noted are these: Homo sapiens, MV4-11, 144 h, 6 days, read-out: (c) MLL/WDR5 cell proliferation assay//MLL/WDR5 proliferation MV4:11 Qualified AC50. How it is done:
MV4-11 6-Day Cell Growth CTG (CellTiter-Glo) Assay
Acute myeloid leukemia cell MV4-11 (ATCC® CRL-9591™) was cultured with RPMI 1640 medium (Thermo Fisher Scientific, cat #11875) supplemented with 10% FBS (Thermo Fisher Scientific, cat #10099141) in humidified incubator at 37° C., 5% CO2. To assess the effect of WDR5 inhibitor on cell growth, the compound of the present invention was dissolved in DMSO and serially diluted at 1:3 for 12 points starting from 10 mM then 200 nL for the replicate of each dose per well was dispensed to Viewplate-384 Black (Perkin Elmer). Exponentially growing MV4-11 cells were seeded at the density of 300 cells per well in 40 μL to the plate, so the final compound working concentration starts from 50 μM. After 6 days, 40 μL CellTiter-Glo (Promega, cat #G7573) was added into the cell culture well and luminescence was read with Envision (Perkin Elmer) to determine the viable cells. The percentage inhibition was calculated against the samples treated with DMSO only and the data were used for dose response curve fitting in GraphPad Prism to get the IC50 of representative compound of present invention, which reflects the inhibition of WDR5 activity in the proliferation of MV4;11.
Background: In ATP-based viability assays light output follows the ATP content of the culture.

This is an account of results in US20220289732A1, “HETEROCYCLIC WDR5 INHIBITORS AS ANTI-CANCER COMPOUNDS” (NOVARTIS AG, priority 2019, published 2022).

`CCOc1cc([C@H](C)N2CCc3c(cc(CCN(C)CC)cc3-c3ccc(N)nc3C)C2=O)ncc1C#N` [Example 122, (S)-6-(1-(5-(6-amino-2-methylpyridin-3-yl)-7-(2-(ethyl(methyl)amino)ethyl)-1-oxo-3,4-dihydroisoquinolin-2(1H)-yl)ethyl)-4-ethoxynicotinonitrile]: the IC50 at WDR5 is under 0.01 µM. For the same compound, the AC50 (in test [1]; in the test with MV4-11 cells) was 0.01 to 1 µM throughout.

In the case of `CCOc1cc([C@H](C)N2CCc3c(cc(CCN(C)CCF)cc3-c3ccc(F)nc3C)C2=O)ncc1C#N` [Example 247], the IC50 at WDR5 lay in the range of 0.01 to 1 µM. Also, the AC50 (in test [1]; with MV4-11 cells) was 0.01 to 1 µM throughout.

On to `CCOc1cc([C@H](C)N2CCc3c(cc(CCN(C)CC)cc3-c3cn(C)c(=O)c(Cl)c3C)C2=O)ncc1C#N` [Example 170, (S)-6-(1-(5-(5-chloro-1,4-dimethyl-6-oxo-1,6-dihydropyridin-3-yl)-7-(2-(ethyl(methyl)amino)ethyl)-1-oxo-3,4-dihydroisoquinolin-2(1H)-yl)ethyl)-4-ethoxynicotinonitrile], for which the IC50 on WDR5 was under 0.01 µM. Besides, the AC50 (in test [1]; in the test on MV4-11 cells) was 0.01 to 1 µM each time.

For `CCOc1cc([C@H](C)N2CCc3c(cc(CCN(C)CC)cc3-c3cn(C)c(=O)cc3Cl)C2=O)ncc1C#N` [Example 175, (S)-6-(1-(5-(4-chloro-1-methyl-6-oxo-1,6-dihydropyridin-3-yl)-7-(2-(ethyl(methyl)amino)ethyl)-1-oxo-3,4-dihydroisoquinolin-2(1H)-yl)ethyl)-4-ethoxynicotinonitrile], at WDR5, the IC50 was under 0.01 µM. Moreover, the AC50 (in test [1]; in the test on MV4-11 cells) was 0.01 to 1 µM in each case.

For `CNc1nccn1Cc1cc2c(c(-c3cc(CO)cnc3Cl)c1)CCN(Cc1cc(OC)c(F)cc1F)C2=O` [Example 61, 5-(2-chloro-5-(hydroxymethyl)pyridin-3-yl)-2-(2,4-difluoro-5-methoxybenzyl)-7-((2-(methylamino)-1H-imidazol-1-yl)methyl)-3,4-dihydroisoquinolin-1(2H)-one], the IC50 at WDR5 is 0.01 to 1 µM. For the same compound, the AC50 (in test [1]; with MV4-11 cells) was 0.01 to 1 µM in each case.

As to `CCOc1cc([C@H](C)N2CCc3c(cc(CCN(C)CC)cc3-c3cn4ccnc4cc3C)C2=O)ncc1C#N` [Example 190, (S)-4-ethoxy-6-(1-(7-(2-(ethyl(methyl)amino)ethyl)-5-(7-methylimidazo[1,2-a]pyridin-6-yl)-1-oxo-3,4-dihydroisoquinolin-2(1H)-yl)ethyl)nicotinonitrile], the IC50 at WDR5 is under 0.01 µM. Also, the AC50 (in test [1]; in the test on MV4-11 cells) was 0.01 to 1 µM each time.

Regarding `CCOc1cc(C(C)N2CCc3c(cc(CCN(C)C4COC4)cc3-c3ccc(F)nc3C)C2=O)ncc1C#N` (stereo not drawn) [Example 231], the IC50 at WDR5 is under 0.01 µM. Further, the AC50 (in test [1]; in the test on MV4-11 cells) was 0.01 to 1 µM each time.

For the compound `CCOc1cc(CN2CCc3c(cc(Cn4ccnc4C)cc3-n3nc(C)nc3C(F)F)C2=O)ncc1C#N` [Example 298], the IC50 on WDR5 was under 0.01 µM. Further, the AC50 (in test [1]; in the test on MV4-11 cells) was 0.01 to 1 µM in each case.

Take `CNc1nccn1Cc1cc(-c2cc(CO)cnc2Cl)c2ccn([C@H](C)c3cccc(OC)c3)c(=O)c2c1` [Example 103, (R)-5-(2-chloro-5-(hydroxymethyl)pyridin-3-yl)-2-(1-(3-methoxyphenyl)ethyl)-7-((2-(methylamino)-1H-imidazol-1-yl)methyl)isoquinolin-1(2H)-one]: the IC50 at WDR5 was in the range of 0.01 to 1 µM. The AC50 (in test [1]; with MV4-11 cells) was 0.01 to 1 µM in each case.

With `CCOc1cc(CN2CCc3ccc(Cn4ccnc4NC)cc3C2=O)cnc1C#N` [Example 96, 3-ethoxy-5-((7-((2-(methylamino)-1H-imidazol-1-yl)methyl)-1-oxo-3,4-dihydroisoquinolin-2(1H)-yl)methyl)picolinonitrile], the IC50 on WDR5 lay in the range of 0.01 to 1 µM. In addition, the AC50 (in test [1]; with MV4-11 cells) was 0.01 to 1 µM in each case.

For `CCOc1cc([C@H](C)N2CCc3c(cc(CCN4CC[C@@H](O)[C@H]4C)cc3-c3ccc(F)nc3C)C2=O)ncc1C#N` [Example 225, 4-ethoxy-6-((S)-1-(5-(6-fluoro-2-methylpyridin-3-yl)-7-(2-((2R, 3R)-3-hydroxy-2-methylpyrrolidin-1-yl)ethyl)-1-oxo-3,4-dihydroisoquinolin-2(1H)-yl)ethyl)nicotinonitrile], the IC50 at WDR5 is under 0.01 µM. Also, the AC50 (in test [1]; in the test with MV4-11 cells) was 0.01 to 1 µM in each case.

On to `CCOc1cc(CN2CCc3c(cc(CCN(C)CC)cc3-c3cn(C)c(=O)cc3C(F)(F)F)C2=O)ncc1C#N` [Example 196, 4-ethoxy-6-((7-(2-(ethyl(methyl)amino)ethyl)-5-(1-methyl-6-oxo-4-(trifluoromethyl)-1,6-dihydropyridin-3-yl)-1-oxo-3,4-dihydroisoquinolin-2(1H)-yl)methyl)nicotinonitrile], for which the IC50 at WDR5 lay in the range of 0.01 to 1 µM. The AC50 (in test [1]; in the test with MV4-11 cells) was 0.01 to 1 µM throughout.

In the case of `CNc1nccn1Cc1cc2c(c(-c3cc(CO)cnc3Cl)c1)CCN(Cc1cccc(OC(F)F)c1)C2=O` [Example 73, 5-(2-chloro-5-(hydroxymethyl)pyridin-3-yl)-2-(3-(difluoromethoxy)benzyl)-7-((2-(methylamino)-1H-imidazol-1-yl)methyl)-3,4-dihydroisoquinolin-1(2H)-one], on WDR5, the IC50 was 0.01 to 1 µM. Besides, the AC50 (in test [1]; with MV4-11 cells) was 0.01 to 1 µM in each case.

Take `CCOc1cc(CN2CCc3c(cc(CCN(C)CC)cc3-c3cc(C)cnc3C)C2=O)ncc1C#N` [Example 140, 6-((5-(2,5-dimethylpyridin-3-yl)-7-(2-(ethyl(methyl)amino)ethyl)-1-oxo-3,4-dihydroisoquinolin-2(1H)-yl)methyl)-4-ethoxynicotinonitrile]: at WDR5, the IC50 is under 0.01 µM. Moreover, the AC50 (in test [1]; in the test on MV4-11 cells) was 0.01 to 1 µM throughout.
